Strand notation (5' to 3'): a small letter for the sugar, then the base; units joined by * are phosphorothioate-linked, units joined directly phosphodiester-linked; [ ] holds rarer units or linkages, { } end groups; capitals alone tell only the bases. e = 2'-O-(2-methoxyethyl) (MOE); [5mC] = 5-methylcytosine; d = 2'-deoxy (DNA)
Test system: rat RANKL mRNA
Assay: Antisense inhibition of rat RANKL mRNA levels in UMR-106 cells, quantitative real-time PCR (Table 3)
Assay type: cell-based
Parameters: concentration or dose not given beside the values
Conditions: averages from three experiments
Method: Cells were seeded onto 24-well plates (Falcon-353047) at a density of […] for use in antisense oligonucleotide transfection.
Cells are treated and data are obtained in triplicate. […] Cells were harvested 16-24 hours after oligonucleotide treatment.
PCR reagents were obtained from Invitrogen Corporation, (Carlsbad, Calif.).
Probes and primers to rat RANKL were designed to hybridize to a rat RANKL sequence, using published sequence information (GenBank accession number NM_057149.1, incorporated herein as SEQ ID NO:18). For rat RANKL the PCR primers were: • forward primer: […] (SEQ ID NO:19) • reverse primer: […] (SEQ ID NO: 20) and the • PCR probe was: FAM-[…]-TAMRA (SEQ ID NO: 21) where FAM is the fluorescent reporter dye and TAMRA is the quencher dye. For rat GAPDH the PCR primers were: • forward primer: […](SEQ ID NO:22) • reverse primer: […](SEQ ID NO:23) and the • PCR probe was: 5′ JOE-[…]-TAMRA 3′ (SEQ ID NO: 24) where JOE is the fluorescent reporter dye and TAMRA is the quencher dye.
In accordance with the present invention, a second series of antisense compounds was designed to target different regions of the rat RANKL RNA, using published sequences (GenBank accession number NM_057149.1, incorporated herein as SEQ ID NO: 18, and GenBank accession number AF425669.1, incorporated herein as SEQ ID NO: 200). […] All cytidine residues are 5-methylcytidines. […] If present, “N.D.” indicates “no data”.

| Substance | % INHIB (inhibition of rat RANKL mRNA levels) |
| --- | --- |
| 286641 (antisense e[5mC]*eT*eT*eT*eG*dA*dA*dA*dG*d[5mC]*d[5mC]*d[5mC]*d[5mC]*dA*dA*eA*eG*eT*eA*e[5mC]) [compound 286641] | 49% |
| 286649 (antisense eT*eA*eG*eA*e[5mC]*d[5mC]*d[5mC]*dA*dG*dA*dG*dA*d[5mC]*dT*dA*eT*eG*eT*eA*eT) [compound 286649] | 25% |
| gtcttacacatgtatctaca (eG*eT*e[5mC]*eT*eT*dA*d[5mC]*dA*d[5mC]*dA*dT*dG*dT*dA*dT*e[5mC]*eT*eA*e[5mC]*eA; antisense) [ISIS 286644, 2′-MOE gapmer targeted to rat RANKL] | at least 40% |
| 286653 (eA*eA*eA*e[5mC]*e[5mC]*dA*dT*d[5mC]*dA*dT*dT*dT*d[5mC]*dT*d[5mC]*eT*eG*e[5mC]*eA*eA; antisense) [compound 286653] | 58% |
| 286646 (antisense eT*eT*eT*eT*eG*dT*dA*d[5mC]*dA*dA*d[5mC]*dG*dT*dG*dG*eG*e[5mC]*e[5mC]*eA*e[5mC]) [compound 286646] | 53% |
| 286645 (antisense e[5mC]*eT*eT*eA*eG*dT*dA*dG*dT*d[5mC]*dT*dT*dA*d[5mC]*dA*e[5mC]*eA*eT*eG*eT) [compound 286645] | 51% |
| gcatatccatgctaaggctc (eG*e[5mC]*eA*eT*eA*dT*d[5mC]*d[5mC]*dA*dT*dG*d[5mC]*dT*dA*dA*eG*eG*e[5mC]*eT*e[5mC]; antisense) [ISIS 286643, 2′-MOE gapmer targeted to rat RANKL] | at least 40% |
| 286607 (antisense eT*eG*eT*eG*eG*d[5mC]*d[5mC]*d[5mC]*d[5mC]*dA*d[5mC]*dA*dA*dT*dG*eT*eG*eT*eT*eG) [compound 286607] | 48% |
| 286633 (antisense e[5mC]*e[5mC]*eA*eG*eT*dT*d[5mC]*dT*dT*dA*dG*dT*dG*d[5mC]*dT*e[5mC]*e[5mC]*e[5mC]*e[5mC]*e[5mC]) [compound 286633] | 4% |
| 286599 (antisense e[5mC]*eG*e[5mC]*eG*eT*dG*d[5mC]*dT*dG*dT*d[5mC]*dT*dT*d[5mC]*dT*eG*eA*eT*eA*eT) [compound 286599] | 46% |
| 286621 (antisense eA*eA*eG*e[5mC]*e[5mC]*dA*dT*d[5mC]*dT*dT*dG*dG*dT*dT*dA*eA*e[5mC]*e[5mC]*e[5mC]*eT) [compound 286621] | 33% |
| 286651 (eA*eG*eG*eT*eT*d[5mC]*dT*d[5mC]*dA*dG*dT*dG*dG*d[5mC]*dA*e[5mC]*eA*eG*eG*e[5mC]; antisense) [compound 286651] | 80% |
| ccattgtgtgatcaccatga (e[5mC]*e[5mC]*eA*eT*eT*dG*dT*dG*dT*dG*dA*dT*d[5mC]*dA*d[5mC]*e[5mC]*eA*eT*eG*eA; antisense) [ISIS 286648, 2′-MOE gapmer targeted to rat RANKL] | at least 40% |
| 286601 (antisense eT*e[5mC]*eA*e[5mC]*eG*dG*dA*dG*dT*d[5mC]*dT*d[5mC]*dA*dG*dA*eA*eT*eT*e[5mC]*eT) [compound 286601] | 63% |
| 286656 (eT*eT*eT*eT*eG*d[5mC]*dA*d[5mC]*dA*dG*dA*dA*dA*dA*d[5mC]*e[5mC]*eT*eT*eA*e[5mC]; antisense) [compound 286656] | 12% |
| 286612 (antisense eT*eG*eG*eT*eA*d[5mC]*d[5mC]*dA*dA*dG*dA*dG*dG*dA*d[5mC]*eA*eG*eA*e[5mC]*eT) [compound 286612] | 5% |
| aacctgtattttcacggagt (eA*eA*e[5mC]*e[5mC]*eT*dG*dT*dA*dT*dT*dT*dT*d[5mC]*dA*d[5mC]*eG*eG*eA*eG*eT; antisense) [ISIS 286602, 2′-MOE gapmer targeted to rat RANKL] | at least 40% |
| ctttgaaagccccaaagtac (e[5mC]*eT*eT*eT*eG*dA*dA*dA*dG*d[5mC]*d[5mC]*d[5mC]*d[5mC]*dA*dA*eA*eG*eT*eA*e[5mC]; antisense) [ISIS 286641, 2′-MOE gapmer targeted to rat RANKL] | at least 40% |

| Substance | % INHIB (inhibition of rat RANKL mRNA levels) |
| --- | --- |
| 286615 (antisense eT*eA*eG*eA*eG*dA*dT*d[5mC]*dT*dT*dG*dG*d[5mC]*d[5mC]*d[5mC]*eA*eG*e[5mC]*e[5mC]*eT) [compound 286615] | 45% |
| 286655 (eG*eA*eA*eA*eA*d[5mC]*d[5mC]*dT*dT*dA*d[5mC]*dA*d[5mC]*d[5mC]*dT*eG*eA*eA*eA*eT; antisense) [compound 286655] | 0% |
| gcaaatgttggcgtacaggt (eG*e[5mC]*eA*eA*eA*dT*dG*dT*dT*dG*dG*d[5mC]*dG*dT*dA*e[5mC]*eA*eG*eG*eT; antisense) [ISIS 286627, 2′-MOE gapmer targeted to rat RANKL] | at least 40% |
| tagagatcttggcccagcct (eT*eA*eG*eA*eG*dA*dT*d[5mC]*dT*dT*dG*dG*d[5mC]*d[5mC]*d[5mC]*eA*eG*e[5mC]*e[5mC]*eT; antisense) [ISIS 286615, 2′-MOE gapmer targeted to rat RANKL] | at least 40% |
| 286609 (antisense eG*e[5mC]*eA*eG*e[5mC]*dA*dT*dT*dG*dA*dT*dG*dG*dT*dG*eA*eG*eG*eT*eG) [compound 286609] | 17% |
| 286597 (antisense eG*eA*eT*eA*eT*dT*d[5mC]*dT*dG*dT*dT*dA*dG*dG*dA*eT*e[5mC]*e[5mC]*eA*eT) [compound 286597] | 57% |
| tccagagtcgagtcctgcaa (eT*e[5mC]*e[5mC]*eA*eG*dA*dG*dT*d[5mC]*dG*dA*dG*dT*d[5mC]*d[5mC]*eT*eG*e[5mC]*eA*eA; antisense) [ISIS 286604, 2′-MOE gapmer targeted to rat RANKL] | at least 40% |
| tgtggccccacaatgtgttg (eT*eG*eT*eG*eG*d[5mC]*d[5mC]*d[5mC]*d[5mC]*dA*d[5mC]*dA*dA*dT*dG*eT*eG*eT*eT*eG; antisense) [ISIS 286607, 2′-MOE gapmer targeted to rat RANKL] | at least 40% |
| gcgtacaggtaatagaagcc (eG*e[5mC]*eG*eT*eA*d[5mC]*dA*dG*dG*dT*dA*dA*dT*dA*dG*eA*eA*eG*e[5mC]*e[5mC]; antisense) [ISIS 286625, 2′-MOE gapmer targeted to rat RANKL] | at least 40% |
| 286595 (antisense eT*eA*eG*eG*eA*dT*d[5mC]*d[5mC]*dA*dT*d[5mC]*dT*dG*d[5mC]*dG*e[5mC]*eT*e[5mC]*eG*eA) [compound 286595] | 46% |
| gacctgtacagggtcgagag (eG*eA*e[5mC]*e[5mC]*eT*dG*dT*dA*d[5mC]*dA*dG*dG*dG*dT*d[5mC]*eG*eA*eG*eA*eG; antisense) [ISIS 286647, 2′-MOE gapmer targeted to rat RANKL] | at least 40% |
| cttgggattttgatgctggt (e[5mC]*eT*eT*eG*eG*dG*dA*dT*dT*dT*dT*dG*dA*dT*dG*e[5mC]*eT*eG*eG*eT; antisense) [ISIS 286632, 2′-MOE gapmer targeted to rat RANKL] | at least 40% |
| 286589 (antisense eA*e[5mC]*eA*eG*eA*dG*d[5mC]*dG*dA*dT*dG*d[5mC]*dT*dG*d[5mC]*eA*eG*eA*e[5mC]*e[5mC]) [compound 286589] | 49% |
| gcgcaggtacttgccgtagt (antisense eG*e[5mC]*eG*e[5mC]*eA*dG*dG*dT*dA*d[5mC]*dT*dT*dG*d[5mC]*d[5mC]*eG*eT*eA*eG*eT) [ISIS 286587, 2′-MOE gapmer targeted to rat RANKL] | at least 40% |
| 286620 (antisense eA*eT*e[5mC]*eT*eT*dG*dG*dT*dT*dA*dA*d[5mC]*d[5mC]*d[5mC]*dT*eT*eA*eG*eT*eT) [compound 286620] | 48% |
| 286622 (antisense eA*eA*eT*eA*eG*dA*dA*dG*d[5mC]*d[5mC]*dA*dT*d[5mC]*dT*dT*eG*eG*eT*eT*eA) [compound 286622] | 12% |
| 286626 (antisense eT*eG*eT*eT*eG*dG*d[5mC]*dG*dT*dA*d[5mC]*dA*dG*dG*dT*eA*eA*eT*eA*eG) [compound 286626] | 41% |
| agttttccgttgcttaacgt (eA*eG*eT*eT*eT*dT*d[5mC]*d[5mC]*dG*dT*dT*dG*d[5mC]*dT*dT*eA*eA*e[5mC]*eG*eT; antisense) [ISIS 286617, 2′-MOE gapmer targeted to rat RANKL] | at least 40% |

From patent US20050060764A1, “Mouse model for bone metabolism” (priority 2003, published 2005)
